Reference: patent publication US5795892A, “4-aminopyridazines, method of preparing them and drugs containing these compounds” (Boehringer Manneim GmbH, priority 1994, dated 1998)

Legend:
[1] = biological target: T1, thrombin (Equus caballus, UniProt F7BFJ1); assay: Thrombin time; format: biochemical, horse thrombin, human plasma; settings: 37° C.; for TT5 (thrombin time as a difference to the control): 5 μM active substance in human plasma; for TT50 (thrombin time as a difference to the control): 50 μM active substance in human plasma
T1 construct: mature thrombin (light and heavy chain) cut from prothrombin; clotting of human fibrinogen
Description: A conventional test in clinical coagulation diagnostics is the thrombin time. This parameter measures the action of thrombin on fibrinogen and the formation of clots. Inhibitors of thrombin result in an extended thrombin time.
In order to obtain plasma 9 parts of fresh blood from healthy donors was mixed with one part of sodium citrate solution (0.11 mol/l) and it was centrifuged for 10 minutes at room temperature at ca. 3000 r.p.m. The plasma was removed by pipette and can be stored at room temperature for ca. 8 hours.
200 μl citrate plasma was incubated for 2 minutes at 37° C. in a ball coagulometer (KC10 from the Amelung Company). 10 μl dimethylsulfoxide (DMSO) or a solution of the active substance in DMSO was added to 190 μl pre-heated thrombin reagent (Boehringer Mannheim GmbH; contains ca. 3 U/ml horse thrombin and 0.0125M Ca^++). On addition of this 200 μl solution to the plasma a stopwatch was started and the time at which coagulation starts was determined.
The measured thrombin times in seconds are given in the following table as a difference to the control. The concentrations of the active substances in human plasma were 50 μM (TT50) and 5 μM (TT5).

[2] = biological target: T2, human α thrombin (Homo sapiens, UniProt P00734); assay: Thrombin inhibition; format: biochemical; settings: pH=7.5, 25° C., substrate H-(D)-Phe-Pro-Arg-pNA
T2 construct: human α thrombin; purchased Sigma
Description: The kinetic measurements were carried out in 0.1M phosphate buffer that contained 0.2M sodium chloride and 0.5% polyethylene glycol 6000 at a pH=7.5 and 25° C. with the substrate H-(D)-Phe-Pro-Arg-pNA (Kabi) and human α thrombin (Sigma, specific activity=2150 NIH-units/mg) in polystyrene semi-microcuvettes in a total volume of 1 ml.
In a preliminary test each active substance was determined as to whether it inhibits thrombin rapidly or slowly. For this the reaction was firstly started by adding 0.03 NIH units thrombin to a 100 μM solution of the substrate and the active substance. In a second experiment, substrate was added to a solution of thrombin and the active substance which had been incubated for 5 minutes. The increase in the concentration of p-nitroaniline with time was monitored spectroscopically (UV-VIS spectrophotometer Lambda-2 from the Perkin-Elmer Company) at 405 nm for 12 min.
Since the measured curves obtained in both experiments were linear and parallel, the active substances of the following table are rapid thrombin inhibitors.
The inhibition constants Ki were then determined as follows. The substrate was used at concentrations of 100 μM, 50 μM, 30 μM, 20 μM and at each substrate concentration one measurement was carried out without inhibitor and three measurements were carried out in the presence of various concentrations of the inhibitors listed in the following table. The reactions were started by the addition of thrombin. The increase in absorbance at 405 nm due to the formation of p-nitroaniline was monitored over a time period of 12 minutes. Measurement points (time versus absorbance) were transferred to a PC at intervals of 20 seconds. The rates Vo (change in absorbance per second; measurements without inhibitor) and Vi (measurements with inhibitor) are determined by linear regression. Only that part of each measurement was used in which the substrate concentration had decreased by less than 15%. Km ' and Vmax were determined from a measurement series (constant inhibitor concentration, variable substrate concentrations) by a non-linear fit to the equation [formula] Finally Ki was calculated from the entire series of measurements by non-linear fitting to the equation [formula]
The inhibition constants Ki of the active substances are stated in the following table in units of μM.

Compound | TT5 (thrombin time as a difference to the control) [1] [s] | TT50 (thrombin time as a difference to the control) [1] [s] | Ki [2] [nM]
Cc1cc(OCCNc2ccnnc2)cc(OS(=O)(=O)c2cccc(C#N)c2)c1 [Example 9, 3-Cyanobenzenesulfonic acid-3-methyl-5-[2-(pyridazin-4-ylamino)-ethoxy]-phenyl ester] | 31 | 128 | 140
Cc1cc(OCCNc2ccnnc2)cc(OS(=O)(=O)c2cccc(C(N)=S)c2)c1 [Example 10, 3-Thiocarbamoyl-benzenesulfonic acid-3-methyl-5-[2-(pyridazin-4-ylamino)-ethoxy]-phenyl ester] | 13 | 71 | 170
Cc1cc(NS(=O)(=O)c2ccccc2)cc(OCCNc2ccnnc2)c1 [Example 1, N-{3-methyl-5-[2-(pyridazin-4-ylamino)-ethoxy]-phenyl}-benzenesulfonamide] | 23 | 126 | 70
Cc1cc(NS(=O)(=O)C2CCCCC2)cc(OCCNc2ccnnc2)c1 [Example 22, N-{3-Methyl-5-[2-(pyridazin-4-ylamino)-ethoxy]-phenyl}-cyclohexanesulfonamide] | 11 | 90 | 350
CCOC(=O)COc1cccc(S(=O)(=O)Oc2cc(C)cc(OCCNc3ccnnc3)c2)c1 [Example 13, (3-{3-Methyl-5-[2-(pyridazin-4-ylamino)-ethoxy]-phenoxy-sulfonyl}-phenoxy)-acetic acid ethyl ester] | 0 | 49 | 90
Cc1cc(OCCNc2ccnnc2)cc(OS(=O)(=O)c2ccc(C#N)cc2)c1 [Example 11, 4-Cyanobenzenesulfonic acid-3-methyl-5-[2-(pyridazin-4-ylamino)-ethoxy]-phenyl ester] | 18 | 81 | 200
Cc1cc(OCCNc2ccnnc2)cc(OS(=O)(=O)c2cccnc2)c1 [Example 4] | 38 | 194 | 60
